Measurements published in patent publication US6582940B1, “Method for producing calcium pantothenate” (Daiichi Fine Chemical Co., Ltd., priority 1998, dated 2003).

Experiment: hygroscopicity analysis (desiccator, relative humidity 82%, 40° C., 24 hours)
Type: physicochemical
Details: for amount of absorbed moisture: 1 g sample, relative humidity 82% (saturated aqueous potassium chloride), after 24 hours; for deliquescence in the hygroscopicity analysis: relative humidity 82%, 24 hours, macroscopic observation
Protocol: The term “nondeliquescent” used in the specification means that a substance is nonhygroscopic (in general, an amount of absorbed moisture is 5% or less at 40° C. under 82% of relative humidity after 24 hours), or not suffered from deliquescence by moisture absorption. More specifically, the term means that no deliquescence is macroscopically observed in a part or whole surface of a solid calcium pantothenate at 40° C. under 82% of the relative humidity within 24 hours. The calcium pantothenate of the present invention comprising an amount of a crystalline component sufficient to prevent deliquescence is an example of the nondeliquescent and crystalline calcium pantothenate.
This product was further dried by using a normal-pressure warm-air dryer at 80° C. for 30 minutes and milled in a mortar, and then sized through a filter No.83 and subjected to a hygroscopicity analysis. The sample (1 g) was placed in a desiccator adjusted to relative humidity of 82% with a saturated aqueous solution of potassium chloride at 40° C., and an amount of absorbed moisture after 24 hours was determined. […] An amorphous was dried in the same manner and the amount of absorbed moisture was determined under the same conditions. […] Moreover, the powder X-ray diffraction analysis of the aforementioned product gave the characteristic peak indicated by the arrow, which verified that the product was a crystalline substance containing the monohydrate (FIG. 1).

Row | amount of absorbed moisture [%] | deliquescence in the hygroscopicity analysis | Substance
1 | 0.8 | no deliquescence was observed | calcium pantothenate [Example 3]
2 | 0.7 | no deliquescence was observed | calcium pantothenate [Example 2]

Row | Substance | amount of absorbed moisture [%] | deliquescence in the hygroscopicity analysis
3 | monocalcium bis[(R)-N-(2,4-dihydroxy-3,3-dimethylbutyryl)-β-alaninate] [amorphous calcium pantothenate, reference compound] | 7.0 | macroscopically apparent deliquescence of the surface was observed
